≈ marks a conversion by molar mass, not a printed value.
Test system: P388
Assay: Cytotoxicity against mouse P388 cells after 3 days by MTT assay
Format: functional, cell-based
Settings: P388, 72 h

`CC[C@H](C)[C@@H]1NC(=O)c2nc(oc2C)[C@H](C)NC(=O)c2csc(n2)[C@H](Cc2cncn2C)NC(=O)c2csc1n2` [MICROCYCLAMIDE] gave an IC50 of 1.2 µg/mL (≈ 2.06 µM).
